The values that follow come from patent US11034650B2, “Compounds useful for treating a Mannheimia haemolytica or Histophilus somni infection” (Intervet Inc., priority 2016, dated 2021).

Values after ≈ are worked out from the molar mass of the structure shown.

One assay deals with Mannheimia haemolytica MH 13093 (XB0472-6014.1, BRD field isolate). Nature of the assay: MIC, broth-microdilution (CLSI VET01-A4), strain MH 13093. The settings on record: Mannheimia haemolytica strain MH 13093, broth-microdilution; unit assumed. In kind it is cell-based. The method in brief: (§1)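 MIC recorded as the lowest drug level giving no growth visible to the naked eye, from two-fold serial dilutions. Interpretation followed VET01-S3.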
A general note: Broth dilution looks for growth in wells or tubes with falling amounts of substance.
Regarding `CC(C)(O)[C@H](NC(=O)c1ccc(C#Cc2ccc(CNCc3ccnc(Cl)c3)cc2)cc1)C(=O)NO` [Compound 229], the MIC MH 13093 worked out at 0.4 µg/mL (≈ 0.789 µM).

`C=CCNCc1ccc(C#Cc2ccc(C(=O)N[C@H](C(=O)NO)C(C)=NOC)cc2)cc1` [Compound 379] displayed an MIC MH 13093 of 1.6 µg/mL (≈ 3.68 µM).

Compound `CC(=O)C(NC(=O)c1ccc(C#Cc2ccc(CNC3CCC3)cc2)cc1)C(=O)NO` (stereo not drawn) [Compound 404] registered an MIC MH 13093 of 50 µg/mL (≈ 119 µM).

The next assay concerns Pasteurella multocida PM 6267 (P 2225 (L386), reference strain, mouse infection strain). Nature of the assay: MIC, broth-microdilution (CLSI VET01-A4), strain PM 6267. As to conditions: Pasteurella multocida strain PM 6267, broth-microdilution; unit assumed. The class given is cell-based. A digest of the protocol:
as §1
On to `CC(C)(O)[C@H](NC(=O)c1ccc(C#Cc2ccc(CNCc3ccnc(Cl)c3)cc2)cc1)C(=O)NO` [Compound 229], for which the MIC PM 6267 was at most 0.1 µg/mL.

Compound `C=CCNCc1ccc(C#Cc2ccc(C(=O)N[C@H](C(=O)NO)C(C)=NOC)cc2)cc1` [Compound 379] showed an MIC PM 6267 of 3.1 µg/mL (≈ 7.13 µM).

Take `CC(=O)C(NC(=O)c1ccc(C#Cc2ccc(CNC3CCC3)cc2)cc1)C(=O)NO` (stereo not drawn) [Compound 404]: the MIC PM 6267 is 25 µg/mL (≈ 59.6 µM).

The next assay deals with Mannheimia haemolytica MH 12587 (1071, BRD field isolate, macrolide-resistance: erm+, E+). Nature of the assay: MIC, broth-microdilution (CLSI VET01-A4), strain MH 12587. The class given is cell-based. As to conditions: Mannheimia haemolytica strain MH 12587, broth-microdilution; unit assumed. A digest of the protocol: as §1
For `CC(C)(O)[C@H](NC(=O)c1ccc(C#Cc2ccc(CNCc3ccnc(Cl)c3)cc2)cc1)C(=O)NO` [Compound 229], the MIC MH 12587 is 0.4 µg/mL (≈ 0.789 µM).

On to `C=CCNCc1ccc(C#Cc2ccc(C(=O)N[C@H](C(=O)NO)C(C)=NOC)cc2)cc1` [Compound 379], for which the MIC MH 12587 turned out to be 0.4 µg/mL (≈ 0.921 µM).

As for `CC(=O)C(NC(=O)c1ccc(C#Cc2ccc(CNC3CCC3)cc2)cc1)C(=O)NO` (stereo not drawn) [Compound 404], the MIC MH 12587 stood at 3.1 µg/mL (≈ 7.39 µM).

For another assay, the system named is Mannheimia haemolytica MH 13065 (XB0446-6003.9, BRD field isolate). Nature of the assay: MIC, broth-microdilution (CLSI VET01-A4), strain MH 13065. The class given is cell-based. The settings on record: Mannheimia haemolytica strain MH 13065, broth-microdilution; unit assumed. The method in brief:
as §1
`CC(C)(O)[C@H](NC(=O)c1ccc(C#Cc2ccc(CNCc3ccnc(Cl)c3)cc2)cc1)C(=O)NO` [Compound 229] returned an MIC MH 13065 of 0.2 µg/mL (≈ 0.394 µM).

Consider `C=CCNCc1ccc(C#Cc2ccc(C(=O)N[C@H](C(=O)NO)C(C)=NOC)cc2)cc1` [Compound 379], for which the MIC MH 13065 was 1.6 µg/mL (≈ 3.68 µM).

`CC(=O)C(NC(=O)c1ccc(C#Cc2ccc(CNC3CCC3)cc2)cc1)C(=O)NO` (stereo not drawn) [Compound 404] displayed an MIC MH 13065 of 25 µg/mL (≈ 59.6 µM).

The test system of another assay is Mannheimia haemolytica MH 6357 (M7/2, reference strain, cattle infection strain). Nature of the assay: MIC, broth-microdilution (CLSI VET01-A4), strain MH 6357. In kind it is cell-based. The settings on record: Mannheimia haemolytica strain MH 6357, broth-microdilution; unit assumed. The method in brief:
as §1
`CC(C)(O)[C@H](NC(=O)c1ccc(C#Cc2ccc(CNCc3ccnc(Cl)c3)cc2)cc1)C(=O)NO` [Compound 229]: the MIC MH 6357 is 0.4 µg/mL (≈ 0.789 µM).

`C=CCNCc1ccc(C#Cc2ccc(C(=O)N[C@H](C(=O)NO)C(C)=NOC)cc2)cc1` [Compound 379] registered an MIC MH 6357 of 0.8 µg/mL (≈ 1.84 µM).

Compound `CC(=O)C(NC(=O)c1ccc(C#Cc2ccc(CNC3CCC3)cc2)cc1)C(=O)NO` (stereo not drawn) [Compound 404] displayed an MIC MH 6357 of 12.5 µg/mL (≈ 29.8 µM).

In another assay the test system is Pasteurella multocida PM 6391 (ATCC 43137, reference strain). Nature of the assay: MIC, broth-microdilution (CLSI VET01-A4), strain PM 6391. In kind it is cell-based. The settings on record: Pasteurella multocida strain PM 6391, broth-microdilution; unit assumed. A digest of the protocol:
as §1
In turn, `CC(C)(O)[C@H](NC(=O)c1ccc(C#Cc2ccc(CNCc3ccnc(Cl)c3)cc2)cc1)C(=O)NO` [Compound 229] showed an MIC PM 6391 of at most 0.1 µg/mL.

For the compound `C=CCNCc1ccc(C#Cc2ccc(C(=O)N[C@H](C(=O)NO)C(C)=NOC)cc2)cc1` [Compound 379], the MIC PM 6391 is at most 0.1 µg/mL.

Compound `CC(=O)C(NC(=O)c1ccc(C#Cc2ccc(CNC3CCC3)cc2)cc1)C(=O)NO` (stereo not drawn) [Compound 404] returned an MIC PM 6391 of 0.4 µg/mL (≈ 0.954 µM).

The test system of a further assay is Mannheimia haemolytica MH 6374 (ATCC 33396, reference strain). In words: MIC, broth-microdilution (CLSI VET01-A4), strain MH 6374. In kind it is cell-based. The settings on record: Mannheimia haemolytica strain MH 6374, broth-microdilution; unit assumed. The method in brief:
as §1
Consider `CC(C)(O)[C@H](NC(=O)c1ccc(C#Cc2ccc(CNCc3ccnc(Cl)c3)cc2)cc1)C(=O)NO` [Compound 229], for which the MIC MH 6374 is 0.4 µg/mL (≈ 0.789 µM).

`C=CCNCc1ccc(C#Cc2ccc(C(=O)N[C@H](C(=O)NO)C(C)=NOC)cc2)cc1` [Compound 379]: the MIC MH 6374 came to 1.6 µg/mL (≈ 3.68 µM).

`CC(=O)C(NC(=O)c1ccc(C#Cc2ccc(CNC3CCC3)cc2)cc1)C(=O)NO` (stereo not drawn) [Compound 404] came in with an MIC MH 6374 of 12.5 µg/mL (≈ 29.8 µM).

A further assay deals with Pasteurella multocida PM 10775 (080130003051, BRD field isolate). Nature of the assay: MIC, broth-microdilution (CLSI VET01-A4), strain PM 10775. As to conditions: Pasteurella multocida strain PM 10775, broth-microdilution; unit assumed. In kind it is cell-based. The method in brief:
as §1
`CC(C)(O)[C@H](NC(=O)c1ccc(C#Cc2ccc(CNCc3ccnc(Cl)c3)cc2)cc1)C(=O)NO` [Compound 229] yielded an MIC PM 10775 of at most 0.1 µg/mL.

Compound `C=CCNCc1ccc(C#Cc2ccc(C(=O)N[C@H](C(=O)NO)C(C)=NOC)cc2)cc1` [Compound 379] yielded an MIC PM 10775 of 0.4 µg/mL (≈ 0.921 µM).

With `CC(=O)C(NC(=O)c1ccc(C#Cc2ccc(CNC3CCC3)cc2)cc1)C(=O)NO` (stereo not drawn) [Compound 404], the MIC PM 10775 worked out at 3.1 µg/mL (≈ 7.39 µM).

Another assay has as its system Pasteurella multocida PM 12080 (IV102277-0093, BRD field isolate). In words: MIC, broth-microdilution (CLSI VET01-A4), strain PM 12080. The settings on record: Pasteurella multocida strain PM 12080, broth-microdilution; unit assumed. The class given is cell-based. The method in brief: as §1
Regarding `CC(C)(O)[C@H](NC(=O)c1ccc(C#Cc2ccc(CNCc3ccnc(Cl)c3)cc2)cc1)C(=O)NO` [Compound 229], the MIC PM 12080 is at most 0.1 µg/mL.

In turn, `C=CCNCc1ccc(C#Cc2ccc(C(=O)N[C@H](C(=O)NO)C(C)=NOC)cc2)cc1` [Compound 379] gave an MIC PM 12080 of 0.4 µg/mL (≈ 0.921 µM).

For the compound `CC(=O)C(NC(=O)c1ccc(C#Cc2ccc(CNC3CCC3)cc2)cc1)C(=O)NO` (stereo not drawn) [Compound 404], the MIC PM 12080 came to 1.6 µg/mL (≈ 3.81 µM).

Another assay relates to Mannheimia haemolytica MH 10720 (154, BRD field isolate). In words: MIC, broth-microdilution (CLSI VET01-A4), strain MH 10720. In kind it is cell-based. As to conditions: Mannheimia haemolytica strain MH 10720, broth-microdilution; unit assumed. A digest of the protocol:
as §1
With `CC(C)(O)[C@H](NC(=O)c1ccc(C#Cc2ccc(CNCc3ccnc(Cl)c3)cc2)cc1)C(=O)NO` [Compound 229], the MIC MH 10720 is at most 0.1 µg/mL.

With `C=CCNCc1ccc(C#Cc2ccc(C(=O)N[C@H](C(=O)NO)C(C)=NOC)cc2)cc1` [Compound 379], the MIC MH 10720 was 0.8 µg/mL (≈ 1.84 µM).

`CC(=O)C(NC(=O)c1ccc(C#Cc2ccc(CNC3CCC3)cc2)cc1)C(=O)NO` (stereo not drawn) [Compound 404] had an MIC MH 10720 of 6.3 µg/mL (≈ 15 µM).
